According to article PMC4786809, “Determination of cyanidin 3-glucoside in rat brain, liver and kidneys by UPLC/MS-MS and its application to a short-term pharmacokinetic study” (Scientific Reports, 2016):

Experiments:
Format in all cases: in vivo, Wistar rats
[1] = Urinary excretion after intravenous C3G
Text: (§1) Twenty-two male Wistar rats (Rattus Norvegicus, Harlan Italy S.r.l.), of same age (15 weeks), 293–390 g of body weight, were used. The rats were randomly divided into 5 groups, according to the time that elapsed after intravenous administration of the test compound, and one control group. Each time point was represented by four biological replicates. All animals were allowed to acclimate to the animal facility of the University of Trieste for at least 2 week before studies were initiated. The experimental design was vetted and approved by the bioethical committee of the University of Trieste (internal code 140PAS14), according to the provisions of the European Community Council Directive 2010/63/EU[39]. The methods were carried out in accordance with the approved guidelines. The animals (n = 22) were maintained in cages in a room at 23 ± 2 °C, 50–60% humidity with a 12-hour light-dark cycle. The night before the experiment, food was withdrawn from the cages but water was given ad libitum. On the day of the experiment, the rats were anesthetized with intra-peritoneal administration of tiletamine/zolazepam (1:1, 25 mg/kg body weight) and xylazine (10 mg/kg body weight). During anaesthesia (10 min in all cases), the heart and ventilation rate were monitored. The rats were placed on their backs, with the ventral side up and with the legs spread separately on a thermo-isolated support. The penis was extruded by sliding the prepuce downwards. The dorsal penis vein was then seen along both sides of the penis and exactly 10 min after anaesthesia 0.2 mL PBS without (control group) or with (treated group) 668 nmol cyanidin 3-glucoside (C3G) in PBS was injected using a 24-G hypodermic needle. Then the injection site was pressed with a swab for a few seconds, and the glans was encouraged to retract to prevent further bleeding. One min before sacrificing the rats, sodium heparin (0.1 ml, 500 IU) was injected again into the dorsal penis vein, exposed in the same way. […] Blood draining and excision of the organs were carried out according to the literature. In detail, blood was collected from the neck of rats hold upside down, immediately after their decapitation, which happened at the time points sharp. Exsanguination took 5 seconds; laparotomy and excision of the liver and the kidneys took 5 more seconds. The post-decapitation procedures were standardised. Urine was collected through the urinary bladder with a syringe before decapitation. Kidneys, liver and brain were washed with mQ water, immediately frozen in liquid nitrogen and stored at −80 °C.
(§2) Immediately after sampling, 5 mL of blood were transferred into ice-cold (−20 °C), deoxygenated aqueous 95% methanol in a ratio 1:9 (v/v). The urine was weighted and transferred into ice-cold, deoxygenated aqueous 95% methanol at a ratio of 1:9 (w/v). Frozen kidneys, liver and brain were grounded under cryogenic conditions (−196 °C) to 5 μm particles in a CryoMill (Retsch, Germany), using a single 25 mm i. d. steel ball (30 seconds, 25/sec frequency). The pulverized tissue was rapidly transferred (without thawing) into ice-cold, deoxygenated aqueous 95% methanol at a ratio of 1:9 (w/v). Cinnamic acid-d5, as internal standard, was dissolved in the aqueous methanol at concentration of 0.1 mg/L for the monitoring of the extraction protocol in biofluids and tissues.
(§3) All samples were extracted with an orbital shaker for 10 min at room temperature. The methanol extracts were then centrifuged for 5 min at 3600 rpm at 4 °C, decanted under a stream of nitrogen in 50 mL dark glass vessels and stored at −80 °C. Clean-up of extracted samples in methanol was performed by solid phase extraction (SPE), as previously described. Briefly, 5 mL of extracted samples were evaporated on a rotary evaporator and reconstituted in 10 mL of acidified water. Anthocyanins were extracted by solid-phase adsorption onto a hydrophobic matrix (Sep-Pak C18, 0.35 g, Waters, Milford, MA). […]

[2] = Plasma concentrations and pharmacokinetics after intravenous bolus of C3G (NCA and two-compartment model); details: male, Wistar, rat, plasma, iv; for concentration at 2 min: 2 min after i.v. 668 nmol C3G; for concentration at 2 min / concentration at 0.25 min / concentration at 5 min / concentration at 15 min / concentration at 20 min: mean ± SEM n=4; for AUC0-t / half-life: i.v. 668 nmol C3G; for AUC0-t: read-out: AUC0–20 (converted); for half-life: 668 nmol, read-out: Half life; for concentration at 0.25 min: 0.25 min after i.v. 668 nmol C3G; for concentration at 5 min: 5 min after i.v. 668 nmol C3G; for concentration at 15 min: 15 min after i.v. 668 nmol C3G; for concentration at 20 min: 20 min after i.v. 668 nmol C3G
Text: as §1, §2, §3

[3] = Kidney concentrations and tissue pharmacokinetics after intravenous C3G; details: for MTTK (Mean Transit time in kidneys) / AUC0-t / half-life: kidneys; for half-life: iv
Text: as §1, §2, §3

[4] = Brain concentrations and tissue pharmacokinetics after intravenous C3G; details: for AUC0-t: i.v. 668 nmol C3G
Text: as §1, §2, §3

[5] = Liver concentrations and tissue pharmacokinetics after intravenous C3G; details: for AUC0-t: i.v. 668 nmol C3G
Text: as §1, §2, §3

[6] = 0.25 min after i.v. 668 nmol C3G
[7] = 0.25 min after i.v. 668 nmol C3G, mean ± SEM n=4
[8] = male, Wistar, rat, kidney, 668 nmol
[9] = 0.25–20 min after i.v. 668 nmol C3G

Urine concentration [1, 6]	Urine concentration ([1]; 2 min after i.v. 668 nmol C3G)	Urine concentration ([1]; 5 min after i.v. 668 nmol C3G)	Urine concentration ([1]; 15 min after i.v. 668 nmol C3G)	Urine concentration ([1]; 20 min after i.v. 668 nmol C3G)	concentration at 2 min [2]	AUC0-t [2]	half-life [2]	concentration at 0.25 min [2]	concentration at 5 min [2]	concentration at 15 min [2]	concentration at 20 min [2]	Mean concentration in kidneys ([3]; 2 min after i.v. 668 nmol C3G)	Mean concentration in kidneys ([3]; 5 min after i.v. 668 nmol C3G)	Mean concentration in liver [5, 7]	Mean concentration in liver ([5]; 2 min after i.v. 668 nmol C3G)	Mean concentration in liver ([5]; 5 min after i.v. 668 nmol C3G)	Mean concentration in liver ([5]; 15 min after i.v. 668 nmol C3G)	Mean concentration in liver ([5]; 20 min after i.v. 668 nmol C3G)	AUC0-t ([5]; liver)	Structure (SMILES)	further results
10 ± 0 pmol/g	1480 ± 410 pmol/g	6540 ± 330 pmol/g	5670 ± 2240 pmol/g	5160 ± 1110 pmol/g	13.1 ± 2.35 nM	2.91 nM·h	8.16 min	33.7 ± 5.51 nM	12.3 ± 1.37 nM	3.73 ± 0.94 nM	3.4 ± 0.22 nM	1.56 ± 0.18 nmol/g	0.85 ± 0.08 nmol/g	539.38 ± 71.33 pmol/g	317.61 ± 35.86 pmol/g	364.74 ± 44.85 pmol/g	216.10 ± 36.06 pmol/g	100.84 ± 6.33 pmol/g	5610.12 pmol·min/g	COc1cc(-c2[o+]c3cc(O)cc(O)c3cc2O[C@@H]2O[C@H](CO)[C@@H](O)[C@H](O)[C@H]2O)ccc1O [PN3G, Peonidin-3-O-β-glucoside]	Mean concentration in kidneys [3, 7]: 1.99 ± 0.55 nmol/g; Mean concentration in kidneys ([3]; 15 min after i.v. 668 nmol C3G): 0.89 ± 0.22 nmol/g; Mean concentration in kidneys ([3]; 20 min after i.v. 668 nmol C3G): 0.90 ± 0.14 nmol/g; MTTK (Mean Transit time in kidneys) [3]: 23.11 min; AUC0-t ([3]; i.v. 668 nmol C3G): 20.36 nmol·min/g; Kp ([3]; male, Wistar, rat, kidney, intravenous, 668 nmol, kidneys vs plasma, read-out: AUC in kidneys relative to plasma): 116; half-life [3, 8]: 20.8 min; Amounts found in brain (range over sampling times) [4, 9]: 0.37 to 2.07 pmol/g; Mean concentration in brain ([4]; 2 min after i.v. 668 nmol C3G): 2.07 ± 1.18 pmol/g; Mean concentration in brain ([4]; 5 min after i.v. 668 nmol C3G): 0.70 ± 0.30 pmol/g; Mean concentration in brain ([4]; 15 min after i.v. 668 nmol C3G): 0.40 ± 0.38 pmol/g; Mean concentration in brain ([4]; 20 min after i.v. 668 nmol C3G): 0.37 ± 0.13 pmol/g; MTTB (Mean Transit Time in the brain) ([4]; brain): 8.61 min; AUC0-t ([4]; brain): 17.10 pmol·min/g; half-life ([4]; male, Wistar, rat, brain, iv, 668 nmol): 15.6 min; Kp ([4]; male, Wistar, rat, intravenous, 668 nmol, brain vs plasma, read-out: AUC in brain as share of that in plasma): 0.0978; Amounts found in liver (range over sampling times) [5, 9]: 100.84 to 539.38 pmol/g; MTTL (Mean Transit Time in the liver) ([5]; liver): 3.93 min; Kp ([5]; male, Wistar, rat, intravenous, 668 nmol, liver vs plasma, read-out: AUC in liver relative to plasma): 32.1; half-life ([5]; male, Wistar, rat, liver, iv, 668 nmol, read-out: Half-life): 9.99 min
														13.86 ± 4.32 pmol/g	6.19 ± 2.09 pmol/g	15.85 ± 1.82 pmol/g	1.39 ± 1.14 pmol/g	0.64 ± 0.25 pmol/g	145.57 pmol·min/g	COc1ccc(-c2[o+]c3cc(O)cc(O)c3cc2O[C@@H]2O[C@H](CO)[C@@H](O)[C@H](O)[C@H]2O)cc1O [isoPN3G]	half-life ([5]; liver): 3.18 min; Peak relative to PN3G ([5]; liver only): around 2.59 % of PN3G

Further lines, the molecule ahead of its results:

Structure (SMILES)	Urine concentration [1, 6]	Urine concentration ([1]; 2 min after i.v. 668 nmol C3G)	Urine concentration ([1]; 5 min after i.v. 668 nmol C3G)	Urine concentration ([1]; 15 min after i.v. 668 nmol C3G)	Urine concentration ([1]; 20 min after i.v. 668 nmol C3G)	concentration at 2 min [2]	AUC0-t [2]	half-life [2]	concentration at 0.25 min [2]	concentration at 5 min [2]	concentration at 15 min [2]	concentration at 20 min [2]	Mean concentration in kidneys ([3]; 2 min after i.v. 668 nmol C3G)	Mean concentration in kidneys ([3]; 5 min after i.v. 668 nmol C3G)	Mean concentration in liver [5, 7]	Mean concentration in liver ([5]; 2 min after i.v. 668 nmol C3G)	Mean concentration in liver ([5]; 5 min after i.v. 668 nmol C3G)	Mean concentration in liver ([5]; 15 min after i.v. 668 nmol C3G)	Mean concentration in liver ([5]; 20 min after i.v. 668 nmol C3G)	AUC0-t ([5]; liver)	further results
OC[C@H]1O[C@@H](Oc2cc3c(O)cc(O)cc3[o+]c2-c2cc(O)c(O)c(O)c2)[C@H](O)[C@@H](O)[C@@H]1O [D3G, Delphinidin-3-O-β-glucoside]	20 ± 10 pmol/g	30 ± 0 pmol/g	50 ± 10 pmol/g	20 ± 10 pmol/g	30 ± 10 pmol/g	12.8 ± 10.5 nM															
COc1cc(-c2[o+]c3cc(O)cc(O)c3cc2O[C@@H]2O[C@H](CO)[C@@H](O)[C@H](O)[C@H]2O)cc(OC)c1O [M3G, Malvidin-3-O-β-glucoside]	28.35 ± 17.87 pmol/g	9.57 ± 4.52 pmol/g	5.15 ± 1.88 pmol/g	3.17 ± 1.64 pmol/g		95.8 ± 61.7 nM	5.72 nM·h	5.29 min	9.13 ± 3.46 nM	16.4 ± 13.1 nM	3.67 ± 0.14 nM	8.6 ± 3.88 nM									
OC[C@H]1O[C@@H](Oc2cc3c(O)cc(O)cc3[o+]c2-c2ccc(O)cc2)[C@H](O)[C@@H](O)[C@@H]1O [PG3G, Pelargonidin-3-O-β-glucoside]	1.57 ± 0.40 pmol/g	7.92 ± 2.59 pmol/g	47.09 ± 4.16 pmol/g	33.22 ± 16.09 pmol/g	20.98 ± 5.61 pmol/g	1.89 ± 0.17 nM	0.673 nM·h	44.7 min	4.5 ± 0.62 nM	2.01 ± 0.28 nM	1.9 ± 0.19 nM	1.55 ± 0.13 nM									
COc1cc(-c2[o+]c3cc(O)cc(O)c3cc2O[C@@H]2O[C@H](CO)[C@@H](O)[C@H](O)[C@H]2O)cc(O)c1O [PT3G, Petunidin-3-O-β-glucoside]	4.58 ± 2.84 pmol/g	3.30 ± 1.59 pmol/g				4.95 ± 3.16 nM			2.2 ± 1.05 nM	1.71 ± 1.39 nM			0.00282 ± 0.00028 nmol/g	0.0024 ± 0.00013 nmol/g	1.23 ± 0.59 pmol/g	2.42 ± 0.08 pmol/g	1.09 ± 0.52 pmol/g	1.60 ± 0.44 pmol/g	3.06 ± 0.19 pmol/g	33.85 pmol·min/g	Mean concentration in kidneys [3, 6]: 0.00204 ± 0.00059 nmol/g; Mean concentration in kidneys ([3]; 15 min after i.v. 668 nmol C3G): 0.00229 ± 7e-05 nmol/g; Mean concentration in kidneys ([3]; 20 min after i.v. 668 nmol C3G): 0.00253 ± 0.00026 nmol/g; MTTK (Mean Transit time in kidneys) [3]: 187.44 min; AUC0-t ([3]; unit per footnote *): 48.13 ^* pmol g^–1 min^–1; half-life [3, 8]: 135 min; Mean concentration in brain ([4]; 2 min after i.v. 668 nmol C3G): 1.15 ± 0.62 pmol/g; Mean concentration in brain ([4]; 5 min after i.v. 668 nmol C3G): 1.01 ± 0.46 pmol/g; Mean concentration in brain ([4]; 15 min after i.v. 668 nmol C3G): 2.45 ± 0.22 pmol/g; Mean concentration in brain ([4]; 20 min after i.v. 668 nmol C3G): 1.90 ± 0.60 pmol/g; AUC0-t ([4]; brain): 32.42 pmol·min/g
